Measurements published in article PMC11762577 (Materials Today Bio, 2025).

Assays:
U87-MG cells = test: CCK-8 cell viability / cytotoxicity assay in U87-MG cells; assay type: cell-based, human; conditions: incubation with U87-MG cells for 24 h
[1] = assay type: in vivo, BALB/c nude mice; conditions: orthotopic glioma nude mice; 2.5 mg/kg Dox equivalent every three days; n = 5

SMILES: COc1cccc2c1C(=O)c1c(O)c3c(c(O)c1C2=O)C[C@@](O)(C(=O)CO)C[C@@H]3O[C@H]1C[C@H](N)[C@H](O)[C@H](C)O1 [Dox, doxorubicin]
- IC50 (equivalent Dox concentration), U87-MG cell viability (U87-MG cells): 3.49 µg/mL
- body weight of tumor-bearing mice [1]: decreased on day 12
